Source: patent US20250351832A1, “PHYTOCHEMICALS AS BIOPESTICIDES AND BIOSTIMULANTS” (KAY BEE BIO ORGANICS PVT. LTD., priority 2024, published 2025)
Read-outs that look alike come from different tables or passages of the source.

Assays:
[1] = tested on: Thrips; experiment: whole plant or invertebrate; conditions: in Gossypium hirsutum, 48 h
[2] = tested on: Helicoverpa armigera
[3] = tested on: Mite
[4] = cited from earlier work; for Phytotonic Effect: Table 13, effect on plants, descriptive
[5] = tested on: Spodoptera litura; experiment: whole plant or invertebrate; conditions: 72 h
[6] = tested on: Spodoptera litura
[7] = tested on: tomato seedlings; experiment: Response of tomato plants, greenhouse growth (Ex. 30); assay type: in vivo; conditions: for CCI 5th Day / Plant Height 5th Day / Stem Girth 5th Day: 120 h; for CCI 10th Day / Plant Height 10th Day / Root Length % Increase over control / Stem Girth 10th Day: 240 h; for Plant Height % Increase over pre on 10th Day / Stem Girth % Increase over pre on 10th Day / CCI % Increase over pre on 10th Day / Root Length (cm) 10th Day: tomato seedlings, dose 1 ml/gm/lit
[8] = tested on: Mealy Bug; conditions: Mealy Bug on cotton leaves, dose 1 ml/gm/lit., 48 Hrs.
[9] = tested on: Mealy Bug; conditions: mealy bug on cotton plants, green house, dose 1 ml/gm/lit. spray
[10] = tested on: Helicoverpa armigera; remark: listed apart in the source
[11] = tested on: Spodoptera litura; remark: listed apart in the source
[12] = tested on: Aphid
[13] = tested on: Aphid; conditions: 48 h, 1 mL or g/L
[14] = tested on: Thrips; conditions: 48 h, 1 mL or g/L
[15] = tested on: chili seedlings; experiment: Response of chili plants, greenhouse growth (Ex. 31); assay type: in vivo; conditions: for CCI 5th Day / Plant Height (cm) 5th Day: 120 h; for CCI 10th Day / Plant Height (cm) 10th Day / Root Lenght % Increase over control: 240 h; for CCI % Increase over pre on 10th Day / Plant Height % Increase over pre on 10th Day / Root Lenght (cm) 10th Day / Stem Girth % Increase over pre on 10th Day: chili seedlings, dose 1 ml/gm/lit
[16] = tested on: Mite; remark: listed apart in the source
[17] = tested on: Alternaria alternata; experiment: In vitro poisoned food technique against fungus (Ex. 20); assay type: cell-based; conditions: […]
[18] = tested on: Aphid; experiment: whole plant or invertebrate; conditions: 48 h
[19] = tested on: Thrips
[20] = read-out: % Corrected Mortality at 48 Hrs.
[21] = read-out: % Mortality at 48 Hrs.
[22] = read-out: % Corrected Mortality at 72 Hrs.
[23] = read-out: % Mortality at 72 Hrs.
[24] = Table 13, descriptive, no test described

## C=C1C2CCC(C2)C1(C)C (stereo not drawn) [Camphene, camphene]
[1]; [20]
  mortality at 1 mL or g/L: 45.7%
[1]; [21]
  mortality at 1 mL or g/L: 52.5%
[2]; Helicoverpa armigera 3rd instar on chickpea plants, dose 1 ml/gm/lit. spray, 72 hrs after application
  % Mortality at 72 Hrs.: 60.00%
[2]; Helicoverpa armigera 3rd instar on chickpea plants, dose 1 ml/gm/lit. spray, 72 hrs, corrected for water control
  % Corrected Mortality at 72 Hrs.: 60.00%
[3]; Dose 1 ml/gm/lit., 48 hrs
  % Corrected Mortality at 48 Hrs.: 35.14%
  % Mortality at 48 Hrs.: 40.00%
[4]
  Phytotonic Effect: Trigger the nutrition
[5]; [22]
  mortality at 1 mL or g/L: 65.8%
[5]; [23]
  mortality at 1 mL or g/L: 67.5%
[6]; 72 h, 1 mL or g/L
  Total No. of dead insect at 72 Hrs.: 6.75
[7]
  CCI Pre: 11.85
  Plant Height Pre: 5.75 cm
  Stem Girth Pre: 1.29 mm
  CCI 5th Day: 13.99
  Plant Height 5th Day: 6.82 cm
  Stem Girth 5th Day: 1.49 mm
  CCI 10th Day: 14.95
  Plant Height 10th Day: 7.34 cm
  Root Length % Increase over control: 14.19%
  Stem Girth 10th Day: 2.07 mm
  Plant Height % Increase over pre on 10th Day: 27.65%
  Stem Girth % Increase over pre on 10th Day: 60.47%
  CCI % Increase over pre on 10th Day: 26.16%
  Root Length (cm) 10th Day: 3.80 cm
[8]
  % Mortality at 48 Hrs.: 45.00%
[8]; corrected for water control
  % Corrected Mortality at 48 Hrs.: 42.11%
[9]; 48 hrs after application
  % Mortality at 48 Hrs.: 52.50%
[9]; 48 hrs, corrected for water control
  % Corrected Mortality at 48 Hrs.: 47.22%
[10]; Helicoverpa armigera on okra fruits, dose 1 ml/gm/lit., 72 Hrs.
  % Mortality at 72 Hrs.: 62.50%
[10]; Helicoverpa armigera on okra fruits, dose 1 ml/gm/lit., 72 Hrs., corrected for water control
  % Corrected Mortality at 72 Hrs.: 62.50%
[11]; Spodoptera litura 3rd instar on cabbage plants, dose 1 ml/gm/lit. spray, 72 hrs after application
  % Mortality at 72 Hrs.: 65.00%
[11]; Spodoptera litura 3rd instar on cabbage plants, dose 1 ml/gm/lit. spray, 72 hrs, corrected for water control
  % Corrected Mortality at 72 Hrs.: 63.16%
[12]
  Total No. of dead insect at 48 Hrs.: 5.25
[12]; Dose 1 ml/gm/lit., 48 hrs
  % Corrected Mortality at 48 Hrs.: 45.71%
  % Mortality at 48 Hrs.: 52.50%
[13]
  Total No. of dead insect at 48 Hrs.: 50.00
[14]
  Total No. of dead insect at 48 Hrs.: 5.25
[15]
  CCI Pre: 9.35
  Plant Height (cm) Pre: 3.94 cm
  CCI 5th Day: 10.40
  Plant Height (cm) 5th Day: 5.97 cm
  CCI 10th Day: 12.02
  Plant Height (cm) 10th Day: 6.21 cm
  Root Lenght % Increase over control: 27.80%
  CCI % Increase over pre on 10th Day: 28.56%
  Plant Height % Increase over pre on 10th Day: 57.61%
  Root Lenght (cm) 10th Day: 3.50 cm
  Stem Girth % Increase over pre on 10th Day: 43.80%
[16]; mite on okra plants, green house, dose 1 ml/gm/lit. spray, 48 hrs after application
  % Mortality at 48 Hrs.: 40.00%
[16]; mite on okra plants, green house, dose 1 ml/gm/lit. spray, 48 hrs, corrected for water control
  % Corrected Mortality at 48 Hrs.: 36.84%
[17]
  inhibition of growth at 1 mL or g/L: 18.8%
[18]; [20]
  mortality at 1 mL or g/L: 41.2%
[18]; [21]
  mortality at 1 mL or g/L: 50%
[19]
  Total No. of dead insect at 48 Hrs.: 50.00
[19]; thrips on cotton plants, greenhouse, dose 1 ml/gm/lit. spray, 48 hrs after application
  % Mortality at 48 Hrs.: 50.00%
[19]; thrips on cotton plants, greenhouse, dose 1 ml/gm/lit. spray, 48 hrs, corrected for water control
  % Corrected Mortality at 48 Hrs.: 44.44%

## CC(C)=CCCC(C)=CC=O [Citral]
[1]; [20]
  mortality at 1 mL or g/L: 51.4%
[1]; [21]
  mortality at 1 mL or g/L: 57.5%
[3]; in vivo
  % Mortality at 48 Hrs.: 55.00%
[4]; [24]
  Acaricidal Activity - Mode of action: Repelling and killing
  Antifungal Activity - Mode of action: Inhibited the mycelial
  Antioxidant Activity - Mode of action: Induced the overexpression
  Bactericidal Activity - Mode of action: High mortality against
  Insecticidal Activities - Mode of action: Repellent and Antifeedant
  Nematicidal Activity - Mode of action: Strong Nematicidal activity
  Virucidal Activity - Mode of action: Increases plant disease
[4]
  Phytotonic Effect: Trigger
[5]; [22]
  mortality at 1 mL or g/L: 52.6%
[5]; [23]
  mortality at 1 mL or g/L: 55%
[6]; 72 h, 1 mL or g/L
  Total No. of dead insect at 72 Hrs.: 5.50
[7]
  CCI Pre: 11.20
  Plant Height Pre: 6.11 cm
  Stem Girth Pre: 1.35 mm
  CCI 5th Day: 13.34
  Plant Height 5th Day: 7.15 cm
  Stem Girth 5th Day: 1.46 mm
  CCI 10th Day: 14.25
  Plant Height 10th Day: 7.85 cm
  Root Length % Increase over control: 25.08%
  Stem Girth 10th Day: 2.12 mm
  Plant Height % Increase over pre on 10th Day: 28.48%
  Stem Girth % Increase over pre on 10th Day: 56.50%
  CCI % Increase over pre on 10th Day: 27.23%
  Root Length (cm) 10th Day: 4.16 cm
[11]; in vivo
  % Corrected Mortality at 72 Hrs.: 50.00%
  % Mortality at 72 Hrs.: 52.50%
[12]
  Total No. of dead insect at 48 Hrs.: 6.50
[12]; in vivo
  % Corrected Mortality at 48 Hrs.: 60.00%
  % Mortality at 48 Hrs.: 65.00%
[13]
  Total No. of dead insect at 48 Hrs.: 70.00
[14]
  Total No. of dead insect at 48 Hrs.: 5.75
[15]
  CCI Pre: 8.60
  Plant Height (cm) Pre: 4.47 cm
  CCI 5th Day: 11.02
  Plant Height (cm) 5th Day: 6.30 cm
  CCI 10th Day: 12.02
  Plant Height (cm) 10th Day: 6.79 cm
  Root Lenght % Increase over control: 14.22%
  CCI % Increase over pre on 10th Day: 39.77%
  Plant Height % Increase over pre on 10th Day: 52.01%
  Root Lenght (cm) 10th Day: 3.13 cm
  Stem Girth % Increase over pre on 10th Day: 38.62%
[16]; in vivo
  % Mortality at 48 Hrs.: 55.00%
[17]
  inhibition of growth at 1 mL or g/L: 48.3%
[18]; [20]
  mortality at 1 mL or g/L: 64.7%
[18]; [21]
  mortality at 1 mL or g/L: 70%
[19]
  Total No. of dead insect at 48 Hrs.: 57.50
[19]; in vivo
  % Corrected Mortality at 48 Hrs.: 52.78%

## Cc1ccc(C(C)C)cc1 [p-Cymene]
[1]; [20]
  mortality at 1 mL or g/L: 54.3%
[1]; [21]
  mortality at 1 mL or g/L: 60%
[2]; in vivo
  % Corrected Mortality at 72 Hrs.: 65.00%
  % Mortality at 72 Hrs.: 65.00%
[4]; [24]
  Acaricidal Activity - Mode of action: Showed mortality against
  Bactericidal Activity - Mode of action: Strong anti-bacterial
  Insecticidal Activities - Mode of action: High mortality against
  Nematicidal Activity - Mode of action: Effective in reducing
[4]
  Phytotonic Effect: Trigger plant
[5]; [22]
  mortality at 1 mL or g/L: 71%
[5]; [23]
  mortality at 1 mL or g/L: 72.5%
[6]; Spodoptera litura on castor leaves, dose 1 ml/gm/lit., 10 insects/treatment, 72 hrs after application
  Total No. of dead insect at 72 Hrs.: 7.25
[7]
  CCI Pre: 12.58
  Plant Height Pre: 6.12 cm
  Stem Girth Pre: 1.35 mm
  CCI 5th Day: 14.52
  Plant Height 5th Day: 7.24 cm
  Stem Girth 5th Day: 1.82 mm
  CCI 10th Day: 15.68
  Plant Height 10th Day: 7.84 cm
  Root Length % Increase over control: 21.38%
  Stem Girth 10th Day: 2.06 mm
  Plant Height % Increase over pre on 10th Day: 28.10%
  Stem Girth % Increase over pre on 10th Day: 52.59%
  CCI % Increase over pre on 10th Day: 24.64%
  Root Length (cm) 10th Day: 4.04 cm
[10]; in vivo
  % Corrected Mortality at 72 Hrs.: 65.00%
  % Mortality at 72 Hrs.: 65.00%
[11]; in vivo
  % Corrected Mortality at 72 Hrs.: 68.42%
  % Mortality at 72 Hrs.: 70.00%
[12]
  Total No. of dead insect at 48 Hrs.: 6.00
[12]; in vivo
  % Corrected Mortality at 48 Hrs.: 54.29%
[13]
  Total No. of dead insect at 48 Hrs.: 60.00
[14]
  Total No. of dead insect at 48 Hrs.: 6.00
[15]
  CCI Pre: 9.30
  Plant Height (cm) Pre: 4.29 cm
  CCI 5th Day: 11.47
  Plant Height (cm) 5th Day: 6.13 cm
  CCI 10th Day: 13.48
  Plant Height (cm) 10th Day: 6.48 cm
  Root Lenght % Increase over control: 15.10%
  CCI % Increase over pre on 10th Day: 44.95%
  Plant Height % Increase over pre on 10th Day: 51.05%
  Root Lenght (cm) 10th Day: 3.15 cm
  Stem Girth % Increase over pre on 10th Day: 40.29%
[17]
  inhibition of growth at 1 mL or g/L: 34.1%
[18]; [20]
  mortality at 1 mL or g/L: 52.9%
[18]; [21]
  mortality at 1 mL or g/L: 60%
[19]
  Total No. of dead insect at 48 Hrs.: 57.50
[19]; in vivo
  % Corrected Mortality at 48 Hrs.: 52.78%
  % Mortality at 48 Hrs.: 57.50%
